Columns and labels:
Assay type in all cases: cell-based
Her2 [1] = assay: Confocal imaging of Her2 internalization and degradation; settings: BT474 cells, concentration of IC50, 24 hours, confocal image
Description: 17-AAG treated BT474 cells were examined by the confocal images system. BT474 cells were seeded on the slide and treated at the concentration of IC50 for 24 hours. 17AAG-treated and control BT474 cells were fixed with Methanol, stained with Her2 antibody and analyzed by the confocal image.

colon cancer line HT29 = assay: Apo-ONE Homogeneous Caspase-3/7 assay of 17-AAG apoptotic activity; settings: HT29 cells, 72 hours at 37° C., Caspase-3/7 activity
Text: The Apo-ONE® Homogeneous Caspase-3/7 Assay (Promega, Madison, Wis.) uses a proprietary lysis/activity buffer, in conjunction with the (Z-DEVD)2-Rhodamine 110 substrate, enables a simple “add-mix-read” format for the detection of caspase-3 and -7 in adherent, suspension, and primary culture cells, or in purified caspase preparations. The assay uses a rhodamine 110-based substrate allows for exquisite sensitivity previously unobtainable with conventional colorimetric or fluorometric assays.
Specifically, 100 μl of Apo-ONE® Caspase-3/7 Reagent was added to each well of a white or black 96-well plate containing 100 μl of blank, control or cells in culture. The plate was covered with a plate sealer for incubating for extended periods (>4 hours). In order to perform this assay in a 384-well plate, a 1:1 volume ratio of Apo-ONE® Caspase-3/7 Reagent to sample was used. The contents of wells were mixed using a plate shaker at 300-500 rpm from 30 seconds and incubated at room temperature for 6 hours. The fluorescence of each well was determined at 485/538 nm (a measure of apoptosis, with the higher ratio indicating more apoptosis).
The apoptotic activity of 17-AAG (17-(Allylamino)-17-demethoxygeldanamycin) was determined in the colon cancer line HT29 using an assay for Caspase-3/7 activity (Apo-ONE kit, Promega). 17-AAG-treated HT29 cells were compared with DMSO-treated control (FIG. 1). […]

Her2 [2] = assay: Her2 suppression assay (anti-Her2 immunostaining, absorbance at 405 nm); settings: BT474 cells, 24-hours treatment
Description: Ten thousand BT474 cells per well were seeded into a microtiter plate and grown for 48 hours. After this preincubation, the BT474 cells treated with various concentrations of 17-AAG and its analogs for 24-hours. At the end of this incubation the media was removed from each well, each well was washed twice with ice-cold Tris buffer saline (containing 0.1% Tween 20) and the cells were fixed with Methanol (ice-cold) at […] for 10 minutes. The fixed BT474 cells were immunostained with anti-Her2 antibody. The presence of Her2 protein was determined by measurement of the absorbance at 405 nm in the plate reader.

HT29 cells [3] = assay: Apoptotic activity of 17-AAG combined with anticancer agents (Apo-ONE kit); settings: three days after drug treatment
Description: A panel of anticancer chemotherapeutical agents was tested for the enhancement of apoptotic activity with 17-AAG (using the same apoptotic assay system in Example 1), FIG. 4. HT29 cells were treated with various concentration of 17-AGG in the presence or absence of anticancer agents including known HSP70 promoter inducers. Three days after the drug treatment, the apoptotic activity was measured by the Apo-ONE kit (see above). When combined with the anticancer agents, including HSP70 inducers (such as Cisplatin, Etoposide, Doxorubicin, Velcade, Dimethylenastron). […] Some inhibition was also observed for other inducers of HSP70.

HT29 cells [4] = assay: miRNA concentration dependency of 17-AAG synergy; settings: 17-AAG 3.125 ug/ml, miRNA 60, 30, 15, 7.5 nM
Description: To confirm the activity shown in Example 6, the experiment was repeated with constant amount of 17-AAG (3.125 ug/ml) and increasing amount of miRNAs (60, 30, 15, 7.5 nM) used for transfection. […] There were two distinct classes of miRNAs according to activity (one class with high activity: miR454 (SEQ ID NO:2), miR-520c (SEQ ID NO:4) and miR-520d (SEQ ID NO:5); one class with low activity: miR-145 (SEQ ID NO:1) and miR-519a (SEQ ID NO:3)).

HT29 colon cancer line = assay: miRNA library screen for enhancement of 17-AAG apoptotic activity (Apo-ONE caspase); settings: HT29, miRNA transfected 48 hours, then 17-AAG 48 hours, both 1:800 and 1:3200 dilutions of 17-AAG
Description: In order to observe an enhancement of activity in 17-AAG, a miRNA library of 470 Pre-miRNA precursors have been transfected (Ambion, siPORT NeoFx transfection agent) in to the HT29 colon cancer line and followed by 17-AAG treatment. Synthetic ds-miRNAs from the miRNA library were transfected into HT29 cells and incubated for 48 hours at 37° C. Various concentrations of 17-AAG were added to miRNA transfected HT29 cells and incubated for another 48 hours. 100 uL of media was aspirated from each well. Apo-One caspase reagent was prepared by diluting the substrate in buffer in a 1:100 concentration. 100 uL of the reagent was added to each well. Plates were incubated at room temperature for 6 hours. The apoptotic activity was measured by the Fluoroskan plate reader. […] Molecules that synergized at both 1:800 and 1:3200 dilutions of 17-AAG were miR-145, miR-454-3p, miR519a, miR-520c, and miR-520d (SEQ ID NOS:1-5), (FIG. 5, dark background, respectively).

HT29 cells [5] = assay: miRNA enhancement of oxaliplatin or paclitaxel apoptosis (Apo-ONE Caspase-3/7 Assay); settings: HT29, miRNA 30 nM 48 hours; for Level of apoptosis in oxaliplatin treated cells expressing exogenous miRNA: then 15.6 μg/ml oxaliplatin 48 hours; for Level of apoptosis in paclitaxel treated cells expressing exogenous miRNA: then 7.8 μg/ml paclitaxel 48 hours
Description: A transfection medium was made up by diluting siPORT NeoFx (0.3 μl/well) in OPTI-MEM (16.7 ul/well) in the wells of a microtiter plate and this medium was incubated for 10 minutes at room temperature. A pre-miRNA library was diluted to 1 μM and […] of miRNA was added to each well (30 nM). This mixture was incubated at room temperature for another 10 minutes. HT29 cells were then added at 30,000 cells/well and the plates were incubated 48 hours 37° C.
For treatment with candidate therapeutic agents, the media was aspirated from each well and 200 μl/well of 15.6 μg/ml oxaliplatin, 7.8 μg/ml paclitaxel or negative control solution was added. The plates were incubated for 48 hours 37° C. The Apo-ONE® Homogeneous Caspase-3/7 Assay (Promega, Madison, Wis., USA) was performed on the treated cells. The reactions were performed in duplicate.

Compound | Class of activity in synergy with 17-AAG (HT29 cells [4]) | Synergy with 17-AAG in apoptotic reading (HT29 colon cancer line) | Level of apoptosis in paclitaxel treated cells expressing exogenous miRNA (HT29 cells [5]) | also measured
C=CCNC1=C2C[C@@H](C)C[C@H](OC)[C@H](O)[C@@H](C)/C=C(\C)[C@H](OC(N)=O)[C@@H](OC)/C=C\C=C(/C)C(=O)NC(=CC1=O)C2=O [17-AAG, 17-(Allylamino)-17-demethoxygeldanamycin] | – | – | – | Her2 protein expression and localization after treatment (Her2 [1]): eliminated from its cell surface sub-localization to cytoplasm; EC50 of apoptosis induction (colon cancer line HT29): 0.07 µg/mL; EC50 (colon cancer line HT29; read-out: EC50 of apoptosis induction): 120 nM; IC50 (Her2 [2]): ~32 nM
CC(C)C[C@H](NC(=O)[C@H](Cc1ccccc1)NC(=O)c1cnccn1)B(O)O [Velcade] | – | – | – | Effect of the added anticancer agent on apoptotic activity of 17-AAG (HT29 cells [3]): strongly inhibited
miR519a: miRNA AAAGUGCAUCCUUUUAGAGUGUUAC (SEQ ID NO:3) (listed as RNA, chemistry not given here; listed as Homo sapiens) | low activity | synergized | – | –
miR-145: miRNA GUCCAGUUUUCCCAGGAAUCCCUU (SEQ ID NO:1) (listed as RNA, chemistry not given here; listed as Homo sapiens) | low activity | synergized | – | –
miR-454-3p: miRNA UAGUGCAAUAUUGCUUAUAGGGUUU (SEQ ID NO:2) (listed as RNA, chemistry not given here; listed as Homo sapiens) | high activity | synergized | – | Level of apoptosis in oxaliplatin treated cells expressing exogenous miRNA (HT29 cells [5]): highest level of apoptosis
miR-520c: miRNA AAAGUGCUUCCUUUUAGAGGGUU (SEQ ID NO:4) (listed as RNA, chemistry not given here; listed as Homo sapiens) | high activity | synergized | – | Level of apoptosis in oxaliplatin treated cells expressing exogenous miRNA (HT29 cells [5]): highest level of apoptosis
miR-520d: miRNA AAAGUGCUUCUCUUUGGUGGGUU (SEQ ID NO:5) (listed as RNA, chemistry not given here; listed as Homo sapiens) | high activity | synergized | – | Level of apoptosis in oxaliplatin treated cells expressing exogenous miRNA (HT29 cells [5]): highest level of apoptosis
mir 425-3p: miRNA AUCGGGAAUGUCGUGUCCGCC (SEQ ID NO:6) (AUCGGGAAUGUCGUGUCCGCCC; listed as RNA, chemistry not given here; listed as Homo sapiens) | – | – | highest levels of apoptosis | –
mir 495: miRNA AAACAAACAUGGUGCACUUCUUU (SEQ ID NO:7) (listed as RNA, chemistry not given here; listed as Homo sapiens) | – | – | highest levels of apoptosis | –
mir 572: miRNA GUCCGCUCGGCGGUGGCCCA (SEQ ID NO:8) (listed as RNA, chemistry not given here; listed as Homo sapiens) | – | – | highest levels of apoptosis | –
mir 661: miRNA UGCCUGGGUCUCUGGCCUGCGCGU (SEQ ID NO:9) (listed as RNA, chemistry not given here; listed as Homo sapiens) | – | – | highest levels of apoptosis | –

— patent US20090280167A1, “ENHANCEMENT OF DRUG THERAPY BY MIRNA” (Abraxis BioScience, LLC, priority 2008, published 2009)
